Patent publication EP0028716B1, “Motility increasing peptides and their use” (HOECHST AKTIENGESELLSCHAFT, priority 1979, dated 1986)

How the values were obtained:
[1] = tested on: Motorik des Magen-Darmtrakts und der ableitenden Harnwege; test: Stimulation of the motility of the gastrointestinal tract and the efferent urinary tract; type: in vivo, Hund; details: dose needed relative to the peptides of the invention
[2] = tested on: Motorik des Magen-Darmtrakts und der ableitenden Harnwege; test: as above; type: in vivo, Hund; details: parent compound compared with analogues varied in positions A-D
Protocol: Die erfindungsgemässen Peptide stimulieren die Motorik des Magen-Darmtrakts und der ableitenden Harnwege beim Hund und beim Menschen. Sie steigern den Ruhetonus und die segmentale Kontraktionsaktivität des Darmes und fördern dadurch sekundär auch die Wasserresorption aus dem Darmlumen (lleum).
Die erfindungsgemässen Peptide wirken intravenös bereits in einer Dosierung von 10 ng/kg und können unbedenklich auch in höherer Dosierung angewandt werden. […] Das parasympathomimetisch wirkende Carbaminoylcholin benötigt für die gleiche Wirkung etwa eine 10 fache Dosierung. So zählen die erfindungsgemässen Peptide zu den stärksten Effektoren der Motorik des Magen-Darmtrakts und der ableitenden Harnwege. Ihre morphinähnliche Wirkung ist zwar bekannt, doch überschreiten bei der geringen erforderlichen Dosierung weder nach intravenöser, subcutaner noch intranasaler Anwendung die wirksamen Dosen die Blut-Hirn-Schranke. Sie üben deshalb in der für den erfindungsgemässen Zweck erforderlichen Menge keine Wirkungen im Zentralnervensystem aus.

Compound: C[N+](C)(C)CCOC(N)=O [Carbaminoylcholin]
- höhere Dosierung für ähnliche / gleiche Wirkung [1]: ~10 fach

Compound: Enkephalin
- Wirkung (motility stimulation, in words) [2]: sehr schwach wirksamen
